The text below walks through data of patent publication US20260284028A1, “FUSED BICYCLIC HETEROCYCLYL COMPOUNDS AS CCR4 MODULATORS” (AURIGENE ONCOLOGY LIMITED, priority 2023, published 2026).

Read-outs that look alike come from different tables or passages of the source. Where only a bound is given, the exact number is not on record here.

This assay deals with T1, CCR4 (Homo sapiens, UniProt P51679).
T1 construct: expressed in transfected cells; host or cells: CHO-K1
T1 sequence (P51679 1-360): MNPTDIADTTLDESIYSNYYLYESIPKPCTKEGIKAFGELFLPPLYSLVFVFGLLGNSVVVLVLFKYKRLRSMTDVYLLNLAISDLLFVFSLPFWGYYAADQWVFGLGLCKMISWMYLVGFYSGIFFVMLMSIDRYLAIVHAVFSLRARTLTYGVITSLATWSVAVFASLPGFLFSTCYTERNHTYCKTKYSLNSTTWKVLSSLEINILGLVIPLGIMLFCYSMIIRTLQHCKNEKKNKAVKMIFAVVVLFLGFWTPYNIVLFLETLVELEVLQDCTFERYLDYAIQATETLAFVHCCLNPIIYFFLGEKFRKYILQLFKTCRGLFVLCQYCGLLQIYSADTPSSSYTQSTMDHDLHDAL
In words: β-Arrestin recruitment assay (CHO-K1 CCR4 β-Arrestin cells stimulated with recombinant human CCL22). The assay is classed as cell-based. The note with it: CCL22 10 nM stimulation; for IC50: read-out: CCR4 antagonistic activity IC50 (μM) in range; for inhibition: read-out: % inhibition at 5 μM/30 μM (% E-Max). How it is done: CHO-K1 CCR4 β-Arrestin cells were seeded and incubated overnight at 37° C. in a CO2 incubator for adherence. Next day, cells were pretreated with various concentrations of CCR4 modulators for 30 mins at 37° C. The cells were stimulated with recombinant human CCL22 (10 nM) and further incubated for 90 mins. Working detection solution was added and incubated at room temperature for 1 hour after which the chemiluminescent signal was read using a luminometer.
Exemplary compounds of the present application were screened by the above-mentioned assay and the results were tabulated.

[1] abbreviates: CHO-K1, read-out: % inhibition 30 μM (% E-Max).

By IC50 is commonly meant the concentration needed to halve the response being measured.

In the case of `CC(Nc1c(F)ccc2nc(N3CC([C@H]4CCCN([C@H]5C[C@](C)(C(=O)O)C5)C4)C3)sc12)c1ncc(Cl)cc1Cl` (mixture of isomers) [Compound 35, (1R,3r)-3-((3R)-3-(1-(7-((1-(3,5-dichloropyridin-2-yl)ethyl)amino)-6-fluorobenzo[d]thiazol-2-yl)azetidin-3-yl)piperidin-1-yl)-1-methylcyclobutane-1-carboxylic acid], the IC50 was below 0.25 µM. Further, the inhibition under setting [1] came out at 102%. With `C[C@@H](Nc1c(F)ccc2nc(N3CC(C4CN([C@H]5C[C@](C)(C(=O)O)C5)CCO4)C3)sc12)c1ccc(Cl)cc1Cl` (single isomer, unassigned) [Compound 27], the IC50 was in the range of 0.25 to 0.5 µM and the “% inhibition at 5 μM/30 μM (% E-Max)” value is given as 99% at 5 μM.

As for `C[C@@H](Nc1c(F)ccc2nc(N3CC(C4CN([C@H]5C[C@](C)(C(=O)O)C5)CCO4)C3)sc12)c1ccc(Cl)cc1Cl` (single isomer, unassigned) [Compound 28], the “% inhibition at 5 μM/30 μM (% E-Max)” value is recorded as 72% at 5 μM. As to `C[C@@H](Nc1c(F)cnc2nc(N3CC([C@H]4CCCN([C@H]5C[C@](C)(C(=O)O)C5)C4)C3)sc12)c1ncc(Cl)cc1Cl` (single isomer, unassigned) [Compound 42], the IC50 lay within 0.25 to 0.5 µM. Besides, the inhibition under setting [1] was 103%. Take `C[C@H](Nc1c(F)cnc2nc(N3CC([C@H]4CCCN([C@H]5C[C@](C)(C(=O)O)C5)C4)C3)sc12)c1ncc(Cl)cc1Cl` (single isomer, unassigned) [Compound 43]: the IC50 was above 0.5 µM. Also, the inhibition under setting [1] worked out at 95%. The matching figures for `C[C@@H](Nc1c(F)cnc2nc(N3CC([C@H]4CCCN([C@H]5C[C@](C)(C(=O)O)C5)C4)C3)sc12)c1ncc(F)cc1F` (single isomer, unassigned) [Compound 45]: above 0.5 µM and 89%.

Take `C[C@H](Nc1c(F)cnc2nc(N3CC([C@H]4CCCN([C@H]5C[C@](C)(C(=O)O)C5)C4)C3)sc12)c1ncc(F)cc1F` (single isomer, unassigned) [Compound 46]: the IC50 lay within 0.25 to 0.5 µM. In addition, the inhibition under setting [1] was found to be 99%. For `C[C@H](Nc1c(OC(F)F)ccc2nc(N3CC([C@H]4CCCN([C@H]5C[C@](C)(C(=O)O)C5)C4)C3)sc12)c1ncc(Cl)cc1Cl` (single isomer, unassigned) [Compound 49], in that order: 0.25 to 0.5 µM and 99%.

For the molecule `C[C@@H](Nc1c(OC(F)F)ccc2nc(N3CC([C@H]4CCCN([C@H]5C[C@](C)(C(=O)O)C5)C4)C3)sc12)c1ncc(F)cc1F` (single isomer, unassigned) [Compound 51], the IC50 was above 0.5 µM. For the same molecule, the inhibition (CHO-K1, at 30 μM) was found to be 77%. For `C[C@@H](Nc1c(Cl)ccc2nc(N3CC([C@H]4CCCN([C@H]5C[C@](C)(C(=O)O)C5)C4)C3)oc12)c1ccc(Cl)cc1Cl` [Compound 1, (1R,3r)-3-((R)-3-(1-(6-Chloro-7-(((R)-1-(2,4-dichlorophenyl)ethyl)amino)benzo[d]oxazol-2-yl)azetidin-3-yl)piperidin-1-yl)-1-methylcyclobutane-1-carboxylic acid], in that order: below 0.25 µM and 103%. The matching figures for `C[C@@H](Nc1cccc2nc(N3CC([C@H]4CCCN([C@H]5C[C@](C)(C(=O)O)C5)C4)C3)oc12)c1ccc(Cl)cc1Cl` [Compound 2, (1R,3r)-3-((R)-3-(1-(7-(((R)-1-(2,4-dichlorophenyl)ethyl)amino)benzo[d]oxazol-2-yl)azetidin-3-yl)piperidin-1-yl)-1-methylcyclobutane-1-carboxylic acid]: below 0.25 µM and 99.5%. On to `C[C@@H](Nc1cccc2c1nc(N1CC([C@H]3CCCN([C@H]4C[C@](C)(C(=O)O)C4)C3)C1)n2C)c1ccc(Cl)cc1Cl` [Compound 4], for which the inhibition (CHO-K1, at 30 μM) is 71%. On to `Cc1cc(N[C@H](C)c2ccc(Cl)cc2Cl)c2oc(N3CC([C@H]4CCCN([C@H]5C[C@](C)(C(=O)O)C5)C4)C3)nc2c1` [Compound 5], for which the IC50 was in the range of 0.25 to 0.5 µM. Also, the inhibition (CHO-K1, at 30 μM) amounted to 102%. For `C[C@@H](Nc1c(F)ccc2nc(N3CC([C@H]4CCCN([C@H]5C[C@](C)(C(=O)O)C5)C4)C3)oc12)c1ccc(Cl)cc1Cl` [Compound 6], in that order: below 0.25 µM and 104%. The matching figures for `C[C@@H](Nc1cc(Cl)cc2nc(N3CC([C@H]4CCCN([C@H]5C[C@](C)(C(=O)O)C5)C4)C3)oc12)c1ccc(Cl)cc1Cl` [Compound 7]: 0.25 to 0.5 µM and 101%.

Take `C[C@@H](Nc1cccc2nc(N3CC([C@H]4CCCN([C@H]5C[C@](C)(C(=O)O)C5)C4)C3)sc12)c1ccc(Cl)cc1Cl` [Compound 8]: the IC50 is 0.25 to 0.5 µM. The inhibition under setting [1] is 102%.

`Cc1cc2nc(N3CC([C@H]4CCCN([C@H]5C[C@](C)(C(=O)O)C5)C4)C3)oc2c(N[C@H](C)c2ccc(Cl)cc2Cl)c1Cl` [Compound 9]: the IC50 is below 0.25 µM. For the same molecule, the inhibition under setting [1] turned out to be 103%.

For the molecule `COc1ccc2nc(N3CC([C@H]4CCCN([C@H]5C[C@](C)(C(=O)O)C5)C4)C3)oc2c1N[C@H](C)c1ccc(Cl)cc1Cl` [Compound 10], the IC50 is 0.25 to 0.5 µM. The inhibition under setting [1] was 93%. For the molecule `C[C@@H](Nc1c(OC(F)F)ccc2nc(N3CC([C@H]4CCCN([C@H]5C[C@](C)(C(=O)O)C5)C4)C3)oc12)c1ccc(Cl)cc1Cl` [Compound 11], the IC50 was below 0.25 µM. Besides, the inhibition under setting [1] was 101%. The matching figures for `C[C@@H](Nc1c(OC(F)(F)F)ccc2nc(N3CC([C@H]4CCCN([C@H]5C[C@](C)(C(=O)O)C5)C4)C3)oc12)c1ccc(Cl)cc1Cl` [Compound 12]: 0.25 to 0.5 µM and 99.3%. For `C[C@@H](Nc1c(C(F)(F)F)ccc2nc(N3CC([C@H]4CCCN([C@H]5C[C@](C)(C(=O)O)C5)C4)C3)oc12)c1ccc(Cl)cc1Cl` [Compound 13], in that order: below 0.25 µM and 101%. In the case of `C[C@@H](Nc1nccc2nc(N3CC([C@H]4CCCN([C@H]5C[C@](C)(C(=O)O)C5)C4)C3)oc12)c1ccc(Cl)cc1Cl` [Compound 14], the 50% inhibitory concentration (IC50) was 0.25 to 0.5 µM. Under setting [1], the inhibition worked out at 96.4%. The matching figures for `C[C@@H](Nc1cncc2nc(N3CC([C@H]4CCCN([C@H]5C[C@](C)(C(=O)O)C5)C4)C3)oc12)c1ccc(Cl)cc1Cl` [Compound 15]: 0.25 to 0.5 µM and 101%.

On to `C[C@@H](Nc1ccnc2nc(N3CC([C@H]4CCCN([C@H]5C[C@](C)(C(=O)O)C5)C4)C3)oc12)c1ccc(Cl)cc1Cl` [Compound 16], for which the IC50 is below 0.25 µM. The inhibition under setting [1] was found to be 103%.

Take `C[C@@H](Nc1c(Cl)cnc2nc(N3CC([C@H]4CCCN([C@H]5C[C@](C)(C(=O)O)C5)C4)C3)oc12)c1ccc(Cl)cc1Cl` [Compound 17]: the IC50 was in the range of 0.25 to 0.5 µM. Moreover, the inhibition under setting [1] was 102%. For `Cc1ccc2nc(N3CC([C@H]4CCCN([C@H]5C[C@](C)(C(=O)O)C5)C4)C3)oc2c1N[C@H](C)c1ccc(Cl)cc1Cl` [Compound 18], in that order: below 0.25 µM and 103%.

In the case of `C[C@@H](Nc1c(C(N)=O)ccc2nc(N3CC([C@H]4CCCN([C@H]5C[C@](C)(C(=O)O)C5)C4)C3)oc12)c1ccc(Cl)cc1Cl` [Compound 19], the IC50 lay within 0.25 to 0.5 µM. Further, the inhibition under setting [1] amounted to 93.8%. For the molecule `C[C@@H](Nc1c(C(=O)N(C)C)ccc2nc(N3CC([C@H]4CCCN([C@H]5C[C@](C)(C(=O)O)C5)C4)C3)oc12)c1ccc(Cl)cc1Cl` [Compound 20], under setting [1], the inhibition was 41.5%. Regarding `C[C@@H](Nc1c(C#N)ccc2nc(N3CC([C@H]4CCCN([C@H]5C[C@](C)(C(=O)O)C5)C4)C3)oc12)c1ccc(Cl)cc1Cl` [Compound 21], the IC50 is below 0.25 µM. Further, the inhibition under setting [1] worked out at 103%. With `C[C@@H](Nc1cccc2nc(N3CC([C@H]4CCCN([C@H]5C[C@](C)(C(=O)O)C5)C4)C3)n(C)c12)c1ccc(Cl)cc1Cl` [Compound 22], the inhibition (CHO-K1, at 30 μM) came out at 29.5%. Consider `C[C@@H](Nc1c(Cl)ccc2nc(N3CC([C@H]4CCCN([C@H]5C[C@](C)(C(=O)O)C5)C4)C3)sc12)c1ccc(Cl)cc1Cl` [Compound 23], for which the IC50 was below 0.25 µM. In addition, the inhibition under setting [1] stood at 104%.

Regarding `C[C@@H](Nc1c(Cl)ccc2nc(N3CC([C@H]4CCCN(C5(CC(=O)O)CCC5)C4)C3)oc12)c1ccc(Cl)cc1Cl` [Compound 24], the inhibition under setting [1] was determined as 61%. `C[C@@H](Nc1c(F)ccc2nc(N3CC([C@H]4CCCN([C@H]5C[C@](C)(C(=O)O)C5)C4)C3)sc12)c1ccc(Cl)cc1Cl` [Compound 25]: the IC50 was below 0.25 µM. Moreover, the inhibition under setting [1] is 101%. Take `C[C@@H](Nc1c(F)ccc2nc(N3CC(C4CN([C@H]5C[C@](C)(C(=O)O)C5)CCO4)C3)sc12)c1ccc(Cl)cc1Cl` (some centres unmarked) [Compound 26]: the IC50 is below 0.25 µM. Further, the inhibition under setting [1] worked out at 103%. For `C[C@@H](Nc1c(F)ccc2nc(N3CC([C@H]4CCCN([C@H]5C[C@](C)(C(=O)O)C5)C4)C3)sc12)c1ccc(F)cc1F` [Compound 29], in that order: below 0.25 µM and 103%.
